Columns and labels:
[1] = Phosphomolybdenum assay (PhosphoMo), total antioxidant activity; settings: concentration at which absorbance was 0.5
Experimental: The total antioxidant activity of the compounds was evaluated by phosphomolybdenum method according to Zengin et al.[35]. The sample solution (0.3 ml) was combined with 3 ml of reagent solution (0.6 M sulphuric acid, 28 mM sodium phosphate, and 4 mM ammonium molybdate) and the absorbance was recorded at 695 nm after 90 min incubation at 95 °C. The EC50, which is the effective concentration at which the absorbance was 0.5, was calculated for each compound and trolox, as a reference drug.

[2] = FRAP (ferric reducing antioxidant power) assay
Experimental: (§1) The FRAP (ferric reducing antioxidant power) assay was carried out as described by Zengin et al.[38]. The sample solution (0.1 ml) was added to the premixed FRAP reagent (2 ml) containing acetate buffer (0.3 M, pH 3.6), 2,4,6-tris(2-pyridyl)-s-triazine (10 mM) in 40 mM HCl, and ferric chloride (20 mM) in a ratio of 10/1/1 (v/v/v). The absorbance of the sample was subsequently recorded at 593 nm after 30 min incubation at room temperature. Both results were expressed as EC50 values, using trolox as a reference drug.

[3] = ABTS radical cation scavenging activity
Experimental: (§2) The scavenging activity of the compounds on the ABTS radical cation [ABTS,2,2′-azino-bis(3-ethylbenzothiazoline)-6-sulphonic acid] was measured according to the method of Zengin et al.[37] with slight modification. Briefly, ABTS^+ was produced directly by reacting a 7 mM ABTS solution with 2.45 mM potassium persulphate and allowing the mixture to incubate for 12–16 h in the dark at room temperature. Prior to initiating the assay, the ABTS solution was diluted with methanol to an absorbance of 0.700 ± 0.02 at 734 nm. The sample solution (1 ml) was added to the ABTS^+ solution (2 ml) and mixed, and the sample absorbance was recorded at 734 nm after 30 min incubation at room temperature. The corresponding IC50 value, which is the effective concentration at which 50% of DPPH/ABTS radicals are scavenged, was calculated for each compound and trolox, as a reference drug.

[4] = Metal chelating activity on ferrous ions; settings: ferrozine
Experimental: Metal chelating activity on ferrous ions was evaluated by the method previously described. Briefly, the sample solution (2 ml) was added to FeCl2 solution (0.05 ml, 2 mM). The reaction was initiated by the addition of 5 mM ferrozine (0.2 ml). Similarly, a blank was prepared by adding the sample solution (2 ml) to FeCl2 solution (0.05 ml, 2 mM) and water (0.2 ml) without ferrozine. Then, the sample and blank absorbance were recorded at 562 nm after incubation for 10 min at room temperature. The absorbance of the blank was subtracted from that of the sample. EDTA was used as a positive control and this property was expressed as IC50 value for each compound.

[5] = Cupric ion reducing activity (CUPRAC)
Experimental: The cupric ion reducing activity (CUPRAC) was determined according to the method of Zengin et al.[38]. The sample solution (0.5 ml) was added to a premixed reaction mixture containing CuCl2 (1 ml, 10 mM), neocuproine (1 ml, 7.5 mM), and NH4Ac buffer (1 ml, 1 M, pH 7.0). Similarly, a blank was prepared by adding the sample solution (0.5 ml) to a premixed reaction mixture (3 ml) without CuCl2. The absorbances of the sample and blank were subsequently recorded at 450 nm after 30 min incubation at room temperature. The absorbance of the blank was subtracted from that of the sample.
as §1

[6] = DPPH radical scavenging activity
Experimental: The radical scavenging effect of the compounds using the 1,1-diphenyl-2-picrylhydrazyl (DPPH) radical was estimated according to Zengin et al.[36]. The sample solution (1 ml) was added to 4 ml of a 0.004% solution of DPPH in methanol. The sample absorbance was recorded at 517 nm after 30 min incubation at room temperature in the dark.
as §2

Structure (SMILES) | melting point | EC50 [1] | EC50 [2] | IC50 [3] | IC50 [4] | EC50 [5] | IC50 [6]
CC(=NNc1nc(-c2cccc([N+](=O)[O-])c2)cs1)c1cccc([N+](=O)[O-])c1 | 214 to 216 °C |  |  |  |  |  | 
CC(=NNc1nc(-c2cccc([N+](=O)[O-])c2)cs1)c1c[nH]c2ccccc12 | 209 to 211 °C |  |  |  |  |  | 
CC(=NNc1nc(-c2cccc([N+](=O)[O-])c2)cs1)c1ccc(Cl)s1 [Compound 6, 1-(1-(5-Chlorothiophen-2-yl)ethylidene)-2-(4-(3-nitrophenyl)thiazol-2-yl)hydrazine] | 227 to 229 °C | 1250 ± 50 µM | 620 ± 70 µM | 1080 ± 10 µM | > 5000 µM | 490 ± 10 µM | 1180 ± 10 µM
O=[N+]([O-])c1cccc(-c2csc(NN=Cc3ccccc3)n2)c1 [Compound 7, 1-Benzylidene-2-(4-(3-nitrophenyl)thiazol-2-yl)hydrazine] | 193 to 195 °C | 1290 ± 160 µM | 660 ± 40 µM | 1040 ± 10 µM | > 5000 µM | 660 ± 10 µM | 1380 ± 10 µM
O=[N+]([O-])c1cccc(-c2csc(NN=Cc3ccccc3[N+](=O)[O-])n2)c1 [Compound 8, 1-(2-Nitrobenzylidene)-2-(4-(3-nitrophenyl)thiazol-2-yl)hydrazine] | 228 to 230 °C | 1700 ± 50 µM | 470 ± 40 µM | 1040 ± 10 µM | > 5000 µM | 440 ± 20 µM | 1470 ± 10 µM
O=[N+]([O-])c1cccc(-c2csc(NN=Cc3ccccn3)n2)c1 [Compound 16, 1-(4-(3-Nitrophenyl)thiazol-2-yl)-2-(pyridin-2-ylmethylene)hydrazine] |  | 1130 ± 10 µM | 510 ± 20 µM | 1060 ± 20 µM | > 5000 µM | 530 ± 20 µM | 1320 ± 10 µM
O=[N+]([O-])c1cccc(-c2csc(NN=Cc3ccncc3)n2)c1 [Compound 18, 1-(4-(3-Nitrophenyl)thiazol-2-yl)-2-(pyridin-4-ylmethylene)hydrazine] |  | 4700 ± 970 µM | 350 ± 10 µM | 1040 ± 10 µM | > 5000 µM | 580 ± 10 µM | 1370 ± 10 µM
CC(=NNc1nc(-c2cccc([N+](=O)[O-])c2)cs1)c1ccccn1 [Compound 19, 1-(4-(3-Nitrophenyl)thiazol-2-yl)-2-(1-(pyridin-2-yl)ethylidene)hydrazine] |  | 2640 ± 340 µM | 380 ± 20 µM | 1040 ± 10 µM | > 5000 µM | 510 ± 10 µM | 1360 ± 10 µM
CC(=NNc1nc(-c2cccc([N+](=O)[O-])c2)cs1)c1cccnc1 [Compound 20, 1-(4-(3-Nitrophenyl)thiazol-2-yl)-2-(1-(pyridin-3-yl)ethylidene)hydrazine] |  | 1770 ± 70 µM | 320 ± 20 µM | 1040 ± 10 µM | > 5000 µM | 420 ± 20 µM | 1290 ± 10 µM
CC(=NNc1nc(-c2cccc([N+](=O)[O-])c2)cs1)c1ccncc1 [Compound 21, 1-(4-(3-Nitrophenyl)thiazol-2-yl)-2-(1-(pyridin-4-yl)ethylidene)hydrazine] |  | 4480 ± 180 µM | 270 ± 10 µM | 1040 ± 10 µM | > 5000 µM | 460 ± 20 µM | 1340 ± 20 µM
CC(=NNc1nc(-c2cccc([N+](=O)[O-])c2)cs1)c1cnccn1 [Compound 22, 1-(4-(3-Nitrophenyl)thiazol-2-yl)-2-(1-(pyrazin-2-yl)ethylidene)hydrazine] | 243 to 245 °C | 1280 ± 30 µM | 480 ± 40 µM | 1040 ± 10 µM | 3860 ± 290 µM | 910 ± 20 µM | 1340 ± 10 µM
O=[N+]([O-])c1cccc(-c2csc(NN=Cc3cccc4ccccc34)n2)c1 [Compound 28, 1-(Naphthalen-1-ylmethylene)-2-(4-(3-nitrophenyl)thiazol-2-yl)hydrazine] | 212 to 214 °C | 4930 ± 830 µM | 410 ± 10 µM | 1050 ± 10 µM | > 5000 µM | 510 ± 30 µM | 1300 ± 10 µM
CC(=NNc1nc(-c2cccc([N+](=O)[O-])c2)cs1)c1cccc2ccccc12 [Compound 29, 1-(1-(Naphthalen-1-yl)ethylidene)-2-(4-(3-nitrophenyl)thiazol-2-yl)hydrazine] | 226 to 228 °C | 9390 ± 310 µM | 530 ± 20 µM | 1040 ± 10 µM | > 5000 µM | 460 ± 10 µM | 1420 ± 10 µM
O=C(O)CN(CCN(CC(=O)O)CC(=O)O)CC(=O)O [EDTA, reference compound] |  |  |  |  | 20 ± 1 µM |  | 
Cc1c(C)c2c(c(C)c1O)CCC(C)(C(=O)O)O2 (stereo not shown) [Trolox, trolox, reference compound] |  | 1130 ± 50 µM | 160 ± 10 µM | 660 ± 20 µM |  | 240 ± 20 µM | 400 ± 10 µM

Continued, in another order:

melting point | Structure (SMILES) | EC50 [1] | EC50 [2] | IC50 [3] | IC50 [4] | EC50 [5] | IC50 [6]
215 to 217 °C | CCC(=NNc1nc(-c2cccc([N+](=O)[O-])c2)cs1)c1ccccc1 |  |  |  |  |  | 
258 to 260 °C | CC(=NNc1nc(-c2cccc([N+](=O)[O-])c2)cs1)c1ccc([N+](=O)[O-])cc1 |  |  |  |  |  | 
253 to 255 °C | O=[N+]([O-])c1cccc(-c2csc(NN=Cc3c[nH]c4ccccc34)n2)c1 |  |  |  |  |  | 
255 to 256 °C | O=[N+]([O-])c1cccc(-c2csc(NN=Cc3ccc4c(c3)OCO4)n2)c1 |  |  |  |  |  | 
228 to 230 °C | CC(=NNc1nc(-c2cccc([N+](=O)[O-])c2)cs1)c1cc2ccccc2o1 |  |  |  |  |  | 
242 to 244 °C | CC(=NNc1nc(-c2cccc([N+](=O)[O-])c2)cs1)c1ccc2c(c1)OCCO2 |  |  |  |  |  | 
152 to 154 °C | CC(=NNc1nc(-c2cccc([N+](=O)[O-])c2)cs1)c1ccc2ccccc2c1 |  |  |  |  |  | 
166 to 168 °C | O=[N+]([O-])c1cccc(-c2csc(NN=C(c3ccccc3)c3ccccc3)n2)c1 |  |  |  |  |  | 
183 to 185 °C | CC(=NNc1nc(-c2cccc([N+](=O)[O-])c2)cs1)c1cc2ccccc2oc1=O |  |  |  |  |  | 
283 to 285 °C | CC(=NNc1nc(-c2cccc([N+](=O)[O-])c2)cs1)c1ccc(C(C)=NNc2nc(-c3cccc([N+](=O)[O-])c3)cs2)cc1 |  |  |  |  |  | 
222 to 224 °C | O=[N+]([O-])c1cccc(C=NNc2nc(-c3cccc([N+](=O)[O-])c3)cs2)c1 |  |  |  |  |  | 
